Laboratory results taken from patent EP0102327A2, “Barbituric acid derivatives as anthelmintica” (CIBA-GEIGY AG, priority 1982, dated 1984).

Experiments:
[1] = tested on: Nematoden wie Haemonchus concortus und Trichostrongylus colubriformis; test: Test on sheep infected with nematodes (worm count in the intestine after treatment); assay type: in vivo, Schafe; conditions: nematode-infected sheep, single dose; at each of the doses 20, 10, 5 and 2 mg/kg; necropsy 7-10 days after treatment
From the text: Beispiel 14: Versuch an mit Nematoden wie Haemonchus concortus und Trichostrongylus colubriformis infizierten Schafen
Der Wirkstoff wird in Form einer Suspension mit einer Magensonde oder durch Pansen-Injektion Schafen verabreicht, die vorher mit Nematoden wie Haemonchus concortus und Trichostrongylus colubriformis künstlich infiziert wurden. Pro Versuch resp. pro Dosis werden 1 bis 3 Tiere verwendet. Jedes Schaf wird mit nur einer einzigen Dosis behandelt.
(§1) Eine erste Evaluierung erfolgt dadurch, dass die Anzahl der vor und nach der Behandlung im Kot der Schafe ausgeschiedenen Wurmeier verglichen werden.
Sieben bis zehn Tage nach der Behandlung werden die Schafe getötet und seziert. Die Auswertung erfolgt durch Auszählung der nach der Behandlung im Darm zurückbleibenden Würmer. Gleichzeitig und gleichartig infizierte aber unbehandelte Schafe dienen als Kontrolle resp. Vergleich.
Schafe, die mit einer Suspension eines Wirkstoffes aus der Tabelle I behandelt werden, zeigen im Vergleich zu unbehandelten, aber infizierten Vergleichsgruppen einen um mindestens 95 i reduzierten Nematodenbefall. Die Wirkungsdosis beträgt 20, 10, 5 und 2 mg/kg. Mit den Verbindungen Nr. 1, 2, 4, 11, 12 und 13 wird bei jeder der Dosen 100 % Wirkung erzielt.

Fasciola hepatica = test: Test on sheep infected with Fasciola hepatica (count of liver flukes in the bile ducts after treatment); assay type: in vivo, Schafe; conditions: artificially infected sheep, single dose of suspension by stomach tube or rumen injection; 30 and 20 mg/kg Körpergewicht; necropsy 3-4 weeks after treatment
From the text: Beispiel 16: Versuch an mit Fasciola hepatica infizierten Schafen
Der Wirkstoff wird in Form einer Suspension mit einer Magensonde oder durch Pansen-Injektion Schafen verabreicht, die vorher mit Fasciola hepatica künstlich infiziert wurden. Pro Versuch resp. pro Dosis werden 3 Tiere verwendet. Jedes Tier wird mit nur einer einzigen Dosis behandelt.
as §1
Drei bis vier Wochen nach der Behandlung werden die Schafe getötet und seziert. Die Auswertung erfolgt durch das Auszählen der nach der Behandlung in den Gallengängen zurückgebliebenen Leberegel. Gleichzeitig und gleichartig infizierte aber unbehandelte Schafe dienen als Kontrolle resp. Vergleich. Der Unterschied der in den beiden Gruppen festgestellten Anzahl von Leberegeln ergibt den Wirkungsgrad des geprüften Wirkstoffs.
In diesem Versuch zeigen Wirkstoffe aus der Tabelle I bei Dosen von 30 und 20 mg/kg Körpergewicht stets eine mindestens 95%ige Wirksamkeit gegen Fasciola hepatica. Die Verbindungen Nr. 1, 2, 4, 5, 11, 12 und 13 zeigen jeweils vollständige Wirksamkeit (^= Abtötung 100 %).

SMILES	Wirkung [1]	Wirksamkeit gegen Fasciola hepatica (Abtötung) (Fasciola hepatica)
Cc1cc(Oc2ccc(C(F)(F)F)cc2)ccc1NC(=O)C1C(=O)N(C)C(=O)N(C)C1=O [compound 4]	100%	100%
C=CCN1C(=O)C(C(=O)Nc2c(C)cc(Oc3ccc(C(F)(F)F)cc3)cc2C)C(=O)N(C)C1=O (stereo not shown) [compound 12]	100%	100%
Cc1cc(Oc2ccc(C(F)(F)F)cc2)cc(C)c1NC(=O)C1C(=O)N(C)C(=O)N(C)C1=O [compound 2]	100%	100%
C=CCN1C(=O)C(C(=O)Nc2ccc(Oc3ccc(C(F)(F)F)cc3)cc2C)C(=O)N(C)C1=O (stereo not shown) [compound 5]	–	100%
Cc1cc(Oc2ccc(C(F)(F)F)cc2)cc(C)c1NC(=O)C1C(=O)N(C)C(=O)N(C2CC2)C1=O (stereo not shown) [compound 11]	100%	100%
CC(C)c1cc(Oc2ccc(C(F)(F)F)cc2)ccc1NC(=O)C1C(=O)N(C)C(=O)N(C2CC2)C1=O (stereo not shown) [compound 13]	100%	100%
CC(C)c1cc(Oc2ccc(C(F)(F)F)cc2)ccc1NC(=O)C1C(=O)N(C)C(=O)N(C)C1=O [compound 1]	100%	100%
